# Experimental data: PubChem BioAssay AID1963840 (Molecular Pharmacology Branch, DTP, NCI, 2024)
# System: 695427-040-R-J1-PDC complex spheroid viability
# Assay: Anticancer human tumor 695427-040-R-J1-PDC patient-derived colon adenocarcinoma cell line growth inhibition [POLQ]
# Details: for IC50: curve of first compound; for viability, T/C: stronger effect = lower value
# Description: Multicellular complex tumor spheroid response to Polymerase (POL) inhibitors (novobiocin, ART-558, RP6685) in combination with a variety of drugs and investigational agents in selected tumor cell lines
# The POL inhibitors (novobiocin, ART-558, and RP6685) were evaluated both individually and in combination with standard of care and investigational anticancer small molecules within a complex spheroid model of solid tumors. . Complex spheroids include a stromal component modeled by human endothelial cells (HUVEC) and fibroblasts modeled by human mesenchymal stem cells (MSCs). The concentration ranges selected for each drug and investigational agent were based upon clinically achievable concentrations if the clinical Cmax of the agent was known.
# Compounds. The drugs and investigational agents: novobiocin (NSC847541), ART-558 (NSC835418), RP-6685 (NSC848927), peposertib (NSC802822), ceralasertib (NSC780249), elimusertib (NSC800525), camonsertib (NSC841442), AZD-1390 (NSC803789), olaparib (NSC753686), talazoparib (NSC767125), rucaparib (NSC756644), sotorasib (NSC818433), MRTX-1133 (NSC836407), SN-38 (NSC673596), topotecan (NSC609699), epotoside (NSC141540), doxorubicin (NSC123127), gemcitabine (NSC613327), 5-fluorouracil (NSC19893), paclitaxel (NSC125973), vemurafenib (NSC761431), MSA-2 (NSC828583), SN-011 (NSC837082), adavosertib (NSC754352), prexasertib (NSC758257), carboplatin (NSC241240) and oxaliplatin (NSC266046), were obtained from the National Cancer Institute (NCI) Developmental Therapeutics Program Chemical Repository (21). The FDA-approved anticancer drug set is available from the Developmental Therapeutics Program at https://dtp.cancer.gov/organization/dscb/obtaining/. […] The stock solutions were prepared in dimethyl sulfoxide (DMSO, Sigma-Aldrich, St. Louis, MO, cat. D2650), except for the platinum compounds which were prepared in saline (Quality Biological, Gaithersburg, MD, cat. 114-055-101), at 800-fold the tested concentration and stored at -70 degrees C prior to their use. All drugs and investigational agents were tested over a range starting from a high concentration at or near the clinical Cmax and decreasing in half-log increments. If the clinical Cmax for an agent had not been determined, the highest concentration tested was 10 microM, except for SN-38, which was tested at a high concentration of 1 microM.
# Cell Culture. All cells were maintained in an incubator at 37 degrees C and 5% CO2 with 95% humidity. The PDC lines were cultured according to standard operating procedures established by the NCI PDMR (https://pdmr.cancer.gov). Table 3 of the manuscript, lists the cell lines along with the number of the three cell types plated to form the mct-spheroids and media for tumor cell growth. After thawing, all PDC lines, except 997537-175-T-J1-PDC and 415267-285-R-J2-PDC, were cultured in Matrigel-coated flasks prepared with a working solution of 1X Ham's F-12 nutrient mix, without supplementation (Thermo Fisher Scientific, cat. 11765054), 100 U/mL penicillin-streptomycin (Thermo Fisher Scientific, cat. 15140122), and 2.5% Matrigel (Corning Inc., Corning, NY, cat. 354248) for the first three passages. The two PDC lines 997537-175-T-J1-PDC and 415267-285-R-J2-PDC were cultured on uncoated flasks. The 857933-349-R-J2-PDC line was cultured in 6C/Colon 1B media containing advanced DMEM/F-12 (Thermo Fisher Scientific, cat. 12634028), 10 mM HEPES (Thermo Fisher Scientific, cat. 15630080), 1X GlutaMAX supplement (Thermo Fisher Scientific, cat. 35050061), 0.1 mg/mL primocin (InvivoGen, San Diego, CA, cat. ant-pm-2), 10% defined fetal bovine serum, heat inactivated (HyClone Laboratories Inc., Logan, UT, cat. SH30070.03HI), 50% L-WRN conditioned media (ATCC, cat. CRL-3276), 1.25 mM N-Acetyl-L-cysteine (Sigma-Aldrich, cat. A9165), 10 mM nicotinamide (Sigma-Aldrich, cat. N0636), 1X B-27 supplement (Thermo Fisher Scientific, cat. 17504044), 1X N-2 supplement (Thermo Fisher Scientific, cat. […]
# [1] = second compound 0.0316 µM, first compound 0.0316 µM
# [2] = second compound 0.0316 µM, first compound 0.1 µM
# [3] = second compound 0.0316 µM, first compound 0.316 µM
# [4] = second compound 0.0316 µM, first compound 1 µM
# [5] = second compound 0.0316 µM, first compound 3.16 µM
# [6] = second compound 0.0316 µM, first compound 10 µM
# [7] = second compound 0.1 µM, first compound 0.0316 µM
# [8] = second compound 0.1 µM, first compound 0.1 µM
# [9] = second compound 0.1 µM, first compound 0.316 µM
# [10] = second compound 0.1 µM, first compound 1 µM
# [11] = second compound 0.1 µM, first compound 3.16 µM
# [12] = second compound 0.1 µM, first compound 10 µM
# [13] = second compound 0.316 µM, first compound 0.0316 µM
# [14] = second compound 0.316 µM, first compound 0.1 µM
# [15] = second compound 0.316 µM, first compound 0.316 µM
# [16] = second compound 0.316 µM, first compound 1 µM
# [17] = second compound 0.316 µM, first compound 3.16 µM
# [18] = second compound 0.316 µM, first compound 10 µM
# [19] = second compound 1 µM, first compound 0.0316 µM
# [20] = second compound 1 µM, first compound 0.1 µM
# [21] = second compound 1 µM, first compound 0.316 µM
# [22] = second compound 1 µM, first compound 1 µM
# [23] = second compound 1 µM, first compound 3.16 µM
# [24] = second compound 1 µM, first compound 10 µM
# [25] = second compound 3.16 µM, first compound 0.0316 µM
# [26] = second compound 3.16 µM, first compound 0.1 µM
# [27] = second compound 3.16 µM, first compound 0.316 µM
# [28] = second compound 3.16 µM, first compound 1 µM
# [29] = second compound 3.16 µM, first compound 3.16 µM
# [30] = second compound 3.16 µM, first compound 10 µM
# [31] = second compound 10 µM, first compound 0.0316 µM
# [32] = second compound 10 µM, first compound 0.1 µM
# [33] = second compound 10 µM, first compound 0.316 µM
# [34] = second compound 10 µM, first compound 1 µM
# [35] = second compound 10 µM, first compound 3.16 µM
# [36] = second compound 10 µM, first compound 10 µM
# 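Also: spheroids exposed to compounds for seven days.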
# 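For viability, T/C in this document: 100% = DMSO vehicle control viability.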
smiles,measurement,setting,value
COc1cccc2c1C(=O)c1c(O)c3c(c(O)c1C2=O)CC(O)(C(=O)CO)CC3OC1CC(N)C(O)C(C)O1 (centres undefined) + Nc1ccc(C#CCN(C(=O)Cc2ncc(C(F)(F)F)cc2C(F)(F)F)c2ccc(F)cc2)nn1,IC50,second compound 0.0316 µM,> 10 µM
same,IC50,second compound 0.1 µM,> 10 µM
same,IC50,second compound 0.316 µM,> 10 µM
same,IC50,second compound 1 µM,> 10 µM
same,IC50,second compound 3.16 µM,> 10 µM
same,IC50,second compound 10 µM,3.38 µM
same,"viability, T/C",[1],101%
same,"viability, T/C",[2],90.9%
same,"viability, T/C",[3],97.3%
same,"viability, T/C",[4],78.2%
same,"viability, T/C",[5],79.6%
same,"viability, T/C",[6],71%
same,"viability, T/C",[7],113%
same,"viability, T/C",[8],95%
same,"viability, T/C",[9],98.9%
same,"viability, T/C",[10],80%
same,"viability, T/C",[11],84.5%
same,"viability, T/C",[12],64.6%
same,"viability, T/C",[13],99.6%
same,"viability, T/C",[14],99.8%
same,"viability, T/C",[15],94.4%
same,"viability, T/C",[16],83.7%
same,"viability, T/C",[17],81.5%
same,"viability, T/C",[18],68.3%
same,"viability, T/C",[19],106%
same,"viability, T/C",[20],89.5%
same,"viability, T/C",[21],95.7%
same,"viability, T/C",[22],81.8%
same,"viability, T/C",[23],79.6%
same,"viability, T/C",[24],58.6%
same,"viability, T/C",[25],96.2%
same,"viability, T/C",[26],92%
same,"viability, T/C",[27],90.9%
same,"viability, T/C",[28],77.8%
same,"viability, T/C",[29],76.9%
same,"viability, T/C",[30],51.6%
same,"viability, T/C",[31],95.8%
same,"viability, T/C",[32],84.3%
same,"viability, T/C",[33],86.6%
same,"viability, T/C",[34],68.7%
same,"viability, T/C",[35],50.8%
same,"viability, T/C",[36],35.3%
Nc1ccn(C2OC(CO)C(O)C2(F)F)c(=O)n1 (centres undefined) + Nc1ccc(C#CCN(C(=O)Cc2ncc(C(F)(F)F)cc2C(F)(F)F)c2ccc(F)cc2)nn1,IC50,second compound 0.0316 µM,> 10 µM
same,IC50,second compound 0.1 µM,> 10 µM
same,IC50,second compound 0.316 µM,> 10 µM
same,IC50,second compound 1 µM,> 10 µM
same,IC50,second compound 3.16 µM,> 10 µM
same,IC50,second compound 10 µM,> 10 µM
same,"viability, T/C",[1],103%
same,"viability, T/C",[2],92.8%
same,"viability, T/C",[3],92.1%
same,"viability, T/C",[4],91.3%
same,"viability, T/C",[5],81.8%
same,"viability, T/C",[6],66.6%
same,"viability, T/C",[7],98%
same,"viability, T/C",[8],96.1%
same,"viability, T/C",[9],90.8%
same,"viability, T/C",[10],81.3%
same,"viability, T/C",[11],80.4%
same,"viability, T/C",[12],62.2%
same,"viability, T/C",[13],106%
same,"viability, T/C",[14],102%
same,"viability, T/C",[15],75.9%
same,"viability, T/C",[16],78%
same,"viability, T/C",[17],79%
same,"viability, T/C",[18],68.1%
same,"viability, T/C",[19],104%
same,"viability, T/C",[20],90.9%
same,"viability, T/C",[21],89.4%
same,"viability, T/C",[22],78.8%
same,"viability, T/C",[23],80.7%
same,"viability, T/C",[24],63.7%
same,"viability, T/C",[25],102%
same,"viability, T/C",[26],93.3%
same,"viability, T/C",[27],85.1%
same,"viability, T/C",[28],84.8%
same,"viability, T/C",[29],83.7%
same,"viability, T/C",[30],65.8%
same,"viability, T/C",[31],92.5%
same,"viability, T/C",[32],86.7%
same,"viability, T/C",[33],82.3%
same,"viability, T/C",[34],84.6%
same,"viability, T/C",[35],89.2%
same,"viability, T/C",[36],73.9%
